Results on 25 compounds are retold here after PMC9568543, “Bee-safe peptidomimetic acaricides achieved by comparative genomics” (Scientific Reports, 2022).

“And” between values parts separate entries of the source, which are not always exact repeats. Equal entries are not always repeated. Where a SMILES comes first, the peptide text is derived from it. Where no end group is shown, it is not given here. [ ]: non-standard residue; d: D form. Phe(4-NO2) = N[C@@H](Cc1ccc([N+](=O)[O-])cc1)C(=O)O; Oic = O=C(O)[C@@H]1C[C@@H]2CCCC[C@@H]2N1; Phe(4-Cl) = N[C@@H](Cc1ccc(Cl)cc1)C(=O)O; Phe(4-F) = N[C@@H](Cc1ccc(F)cc1)C(=O)O; Hyp = O=C(O)[C@@H]1C[C@@H](O)CN1; β3hF = N[C@H](CC(=O)O)Cc1ccccc1; β3hL = CC(C)C[C@H](N)CC(=O)O; β3hP = O=C(O)C[C@@H]1CCCN1

In series [1] the target is T1, Varroa mite proctolin receptor (VdProctR) (Varroa destructor, UniProt A0A7T1TE40). Nature of the series: Receptor activity assay, CHO cell line stably expressing the receptor, second set of ligands. The series is classed as cell-based. The settings on record: for Fold change: EC50 relative to proctolin, second set (stable expression). The protocol: (§1) Approximately thirty hours after transfection, the cells were collected and preincubated with coelenterazine h for the functional assay, as previously described[30],[31],[52]. The ligands in serial dilutions were loaded into 96-well opaque plates. Cells treated with coelenterazine h were injected into each well on an Orion microplate luminometer (Berthold) luminescent plate reader. The luminescence was measured for 20 s immediately after the cell injections. Data analyses were performed to determine the accumulated luminescence value for 20 s after extraction of blank-well luminescence. […] The three biological replications were regressed for the dose–response curves with 95% confidence intervals (Table 1). For the tests of the second set of ligands, we used the cell line that stably expressed VdProctR, which were selected by Zeocin for 5 passages.
T1 sequence (A0A7T1TE40 entry or part of it): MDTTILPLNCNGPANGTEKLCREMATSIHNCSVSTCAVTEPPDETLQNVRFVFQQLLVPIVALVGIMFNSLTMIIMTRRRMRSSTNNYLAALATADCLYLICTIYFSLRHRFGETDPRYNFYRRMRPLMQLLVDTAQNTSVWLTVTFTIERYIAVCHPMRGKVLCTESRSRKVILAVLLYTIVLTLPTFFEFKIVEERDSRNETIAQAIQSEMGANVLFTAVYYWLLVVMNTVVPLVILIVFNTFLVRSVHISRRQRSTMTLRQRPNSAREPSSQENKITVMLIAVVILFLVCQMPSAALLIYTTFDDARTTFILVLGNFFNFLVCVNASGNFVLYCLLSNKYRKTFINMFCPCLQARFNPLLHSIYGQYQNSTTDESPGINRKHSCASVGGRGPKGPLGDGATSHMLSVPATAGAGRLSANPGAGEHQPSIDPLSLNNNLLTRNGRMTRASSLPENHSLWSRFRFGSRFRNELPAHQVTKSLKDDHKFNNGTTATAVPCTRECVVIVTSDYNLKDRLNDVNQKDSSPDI

The subject of the next series is worker honey bee. Nature of the series: Acute toxicity on worker honey bee by injection, 24 h. The settings on record: 50 nL of 200 µM (10 pmol), 24 h observation, n = 4. As to the method:
For honey bee (Apis mellifera) assays, honey bee workers from healthy colonies were collected from Honeybee Valley of Ghent University, Belgium, and maintained in cages on sugar dough and water, under standardized conditions of 28–30 °C, 60–65% air humidity and continuous darkness. The colony were maintained with a periodic sanitary control that the honeybee hives are free of pathogens, diseases and viruses. There was no Varroa mite infection in the honeybee hives at the moment of collecting the workers for the assays. […] This was realized by injecting a volume of 50 nL of a concentration of the compound of 200 µM. Potential effects on survival were scored at 24 h after injection. […] This test was done with the following compounds were tested: 2439, 2334, 2336, Ac-2442 and controls. Subsequently, working solutions were freshly prepared prior to the bioassays by diluting the stock with distilled water to the required concentration.

Series [2] concerns the target T1, Varroa mite proctolin receptor (VdProctR). Nature of the series: Receptor activity assay (aequorin luminescence), CHO cells transiently expressing the receptor, first set of ligands. The note with it: for Fold change: EC50 relative to proctolin, first set (transient expression); for efficacy (maximal response) compared with proctolin: activities at 1 μM and 10 μM; for EC50: cells with transient expression of the receptor; for potency of double-replacement analog over the corresponding single Y2 replacement analog (factor): 2338 vs 2333, 2337 vs 2329. It counts as cell-based. As to the method: as §1

Series [3] relates to proctolin myotropic assays in cockroach, locust and beetle species. The note with it: cited from earlier work.

For `CC(=O)N[C@@H](CCCNC(=N)N)C(=O)N[C@@H](Cc1ccc(F)cc1)C(=O)N[C@@H](CC(C)C)C(=O)N1C[C@H](O)C[C@H]1C(=O)N[C@H](C(=O)O)[C@@H](C)O` [Ac-2441, Ac-R[Phe(4-F)]L[HyP]T] (Ac-R[Phe(4-F)]L[Hyp]T-OH; N-terminus and C-terminus assumed), in series [1], the Fold change was 61.5.

As to `CC(=O)N[C@@H](CCCNC(=N)N)C(=O)N[C@@H](Cc1ccc([N+](=O)[O-])cc1)C(=O)N[C@@H](CC(C)C)C(=O)N1C[C@H](O)C[C@H]1C(=O)N[C@H](C(=O)O)[C@@H](C)O` [Ac-2442, Ac-R[Phe(4-NO2)]L[HyP]T] (Ac-R[Phe(4-NO2)]L[Hyp]T-OH), the “negative effects after injection into thorax” value with worker honey bee is recorded as “did not show any negative effects”.

As for `CC(=O)N[C@@H](CCCNC(=N)N)C(=O)N[C@@H](Cc1ccc(Cl)cc1)C(=O)N[C@@H](CC(C)C)C(=O)N1C[C@H](O)C[C@H]1C(=O)N[C@H](C(=O)O)[C@@H](C)O` [Ac-2443, Ac-R[Phe(4-Cl)]L[HyP]T] (Ac-R[Phe(4-Cl)]L[Hyp]T-OH), the Fold change in series [1] was found to be 37.5.

`CC(C)C[C@H](NC(=O)[C@H](Cc1ccc(O)cc1)NC(=O)[C@@H](N)CCCNC(=N)N)C(=O)N1CCC[C@H]1C(=O)N[C@@H](C(=O)O)[C@H](C)O` [Analog 2326, RYLP[dT]] (H-RYLP[dT]-OH; N-terminus and C-terminus assumed) registered a Fold change in series [2] of 7654.8.

In series [2], `CC(C)C[C@H](NC(=O)[C@H](Cc1ccc(O)cc1)NC(=O)[C@@H](N)CCCNC(=N)N)C(=O)N1CCC[C@@H]1C(=O)N[C@H](C(=O)O)[C@@H](C)O` [Analog 2327, RYL[dP]T] (H-RYL[dP]T-OH; N-terminus and C-terminus assumed) had a Fold change of 1881.1.

Compound `CC(C)C[C@@H](NC(=O)[C@H](Cc1ccc(O)cc1)NC(=O)[C@@H](N)CCCNC(=N)N)C(=O)N1CCC[C@H]1C(=O)N[C@H](C(=O)O)[C@@H](C)O` [Analog 2328, RY[dL]PT] (H-RY[dL]PT-OH; N-terminus and C-terminus assumed) showed a Fold change in series [2] of 558.8.

In series [2], `CC(C)C[C@H](NC(=O)[C@@H](Cc1ccc(O)cc1)NC(=O)[C@@H](N)CCCNC(=N)N)C(=O)N1CCC[C@H]1C(=O)N[C@H](C(=O)O)[C@@H](C)O` [Analog 2329, R[dY]LPT] (H-R[dY]LPT-OH; N-terminus and C-terminus assumed) displayed a Fold change of 824.5.

One may read the EC50 as the concentration at which the effect is half-maximal. For the compound `CC(C)C[C@H](NC(=O)[C@H](Cc1ccc(O)cc1)NC(=O)[C@H](N)CCCNC(=N)N)C(=O)N1CCC[C@H]1C(=O)N[C@H](C(=O)O)[C@@H](C)O` [Analog 2330, [dR]YLPT] (H-[dR]YLPT-OH; N-terminus and C-terminus assumed), the “efficacy (maximal response) compared with proctolin” value (shortened to “efficacy … compared with proctolin”) in series [2] is reported as “higher than that of proctolin”. Moreover, in series [2] (first set of peptidomimetics, listed as R1 replacement by dR, read-out: EC50), the half-maximal effective concentration (EC50) worked out at 5.62 nM. Moreover, the “activity in earlier in vivo myotropic bioassays” value in series [3] is given as “no activity”.

The compound `CC(C)C[C@@H](CC(=O)N1CCC[C@H]1C(=O)N[C@H](C(=O)O)[C@@H](C)O)NC(=O)[C@H](Cc1ccc(O)cc1)NC(=O)[C@@H](N)CCCNC(=N)N` [Analog 2332, RY[β3L]PT] (H-RY[β3hL]PT-OH) displayed a Fold change in series [2] of 661.7.

On to `CC(C)C[C@H](NC(=O)C[C@H](Cc1ccccc1)NC(=O)[C@@H](N)CCCNC(=N)N)C(=O)N1CCC[C@H]1C(=O)N[C@H](C(=O)O)[C@@H](C)O` [Analog 2333, R[β3F]LPT] (H-R[β3hF]LPT-OH), for which the Fold change in series [2] is on record as 572.0.

With `CC(C)C[C@H](NC(=O)[C@@H](Cc1ccc(O)cc1)NC(=O)[C@@H](N)CCCNC(=N)N)C(=O)N1C[C@H](O)C[C@H]1C(=O)N[C@H](C(=O)O)[C@@H](C)O` [Analog 2337, R[dY]L[HyP]T] (H-R[dY]L[Hyp]T-OH; N-terminus and C-terminus assumed), in series [2], the “efficacy (maximal response)” value is “full efficacy”, the “potency of double-replacement analog over the corresponding single Y2 replacement analog (factor)” value is 4 and the Fold change was found to be 143.5.

Consider `CC(C)C[C@H](NC(=O)C[C@H](Cc1ccccc1)NC(=O)[C@@H](N)CCCNC(=N)N)C(=O)N1C[C@H](O)C[C@H]1C(=O)N[C@H](C(=O)O)[C@@H](C)O` [Analog 2338, R[β3F]L[HyP]T] (H-R[β3hF]L[Hyp]T-OH), for which, in series [2], the “efficacy (maximal response)” value is “full efficacy”, the “potency of double-replacement analog over the corresponding single Y2 replacement analog (factor)” value was 8 and the Fold change was found to be 136.1. For the same compound, the half-maximal effective concentration (EC50) in series [2] (EC50, first set of peptidomimetics) was 33 nM and 33.2 nM.

Take `CC(C)C[C@H](NC(=O)[C@@H](Cc1ccc(O)cc1)NC(=O)[C@@H](N)CCCNC(=N)N)C(=O)N1[C@H](C(=O)N[C@H](C(=O)O)[C@@H](C)O)C[C@@H]2CCCC[C@@H]21` [Analog 2340, R[dY]L[Oic]T] (H-R[dY]L[Oic]T-OH): the Fold change in series [2] came out at 529.7.

In series [1], `CC(C)C[C@H](NC(=O)[C@H](Cc1ccc(F)cc1)NC(=O)[C@@H](N)CCCNC(=N)N)C(=O)N1CCC[C@H]1C(=O)N[C@H](C(=O)O)[C@@H](C)O` [Analog 2438, R[Phe(4-F)]LPT] (H-R[Phe(4-F)]LPT-OH) yielded a half-maximal effective concentration (EC50) of 16.7 nM and a Fold change of 0.7.

As for `CC(C)C[C@H](NC(=O)[C@H](Cc1ccc([N+](=O)[O-])cc1)NC(=O)[C@@H](N)CCCNC(=N)N)C(=O)N1CCC[C@H]1C(=O)N[C@H](C(=O)O)[C@@H](C)O` [Analog 2439, R[Phe(4-NO2)]LPT] (H-R[Phe(4-NO2)]LPT-OH), in the series with worker honey bee, the “negative effects after injection into thorax” value is given as “did not show any negative effects”.

In series [1], `CC(C)C[C@H](NC(=O)[C@H](Cc1ccc(Cl)cc1)NC(=O)[C@@H](N)CCCNC(=N)N)C(=O)N1CCC[C@H]1C(=O)N[C@H](C(=O)O)[C@@H](C)O` [Analog 2440, R[Phe(4-Cl)]LPT] (H-R[Phe(4-Cl)]LPT-OH) showed an EC50 of 5.73 nM and a Fold change of 0.2.

In turn, `CC(C)C[C@H](NC(=O)[C@H](Cc1ccc(F)cc1)NC(=O)[C@@H](N)CCCNC(=N)N)C(=O)N1C[C@H](O)C[C@H]1C(=O)N[C@H](C(=O)O)[C@@H](C)O` [Analog 2441, R[Phe(4-F)]L[HyP]T] (H-R[Phe(4-F)]L[Hyp]T-OH; N-terminus and C-terminus assumed) returned a Fold change in series [1] of 0.7. Besides, the “activity compared with proctolin” value in series [1] (second set, stable expression) is “higher activity than proctolin”.

Compound GRYLPT [Analog G1, GRYLPT] yielded a Fold change in series [2] of 199.7.

RGYLPT [Analog G2, RGYLPT]: in series [2], the Fold change was 71648.2.

Compound RYGLPT [Analog G3, RYGLPT] gave a Fold change in series [2] of 91508.8.

The compound RYLGPT [Analog G4, RYLGPT] gave a Fold change in series [2] of 5444.9.

Turning to RYLPGT [Analog G5, RYLPGT], the Fold change in series [2] amounted to 3095.5.

For the compound RYLPTG [Analog G6, RYLPTG], in series [2], the Fold change turned out to be 4088.2 and the “efficacy … compared with proctolin” value is “higher than that of proctolin”.

Consider “RYL[HyP]T [Analog 2334] (H-RYL[Hyp]T-OH; N-terminus and C-terminus assumed; SMILES CC(C)C[C@H](NC(=O)[C@H](Cc1ccc(O)cc1)NC(=O)[C@@H](N)CCCNC(=N)N)C(=O)N1C[C@H](O)C[C@H]1C(=O)N[C@H](C(=O)O)[C@@H](C)O)”, for which, in series [2], the “efficacy … compared with proctolin” value is listed as “higher than that of proctolin”.

Consider “RYL[β3P]T [Analog 2331] (H-RYL[β3hP]T-OH; N-terminus and C-terminus assumed; SMILES CC(C)C[C@H](NC(=O)[C@H](Cc1ccc(O)cc1)NC(=O)[C@@H](N)CCCNC(=N)N)C(=O)N1CCC[C@H]1CC(=O)N[C@H](C(=O)O)[C@@H](C)O)”, for which the “efficacy … compared with proctolin” value in series [2] is “higher than that of proctolin”.
